Laboratory results: patent publication US20230144436A1, “MUSCLE TARGETING COMPLEXES AND USES THEREOF FOR TREATING MYOTONIC DYSTROPHY” (Dyne Therapeutics, Inc., priority 2020, published 2023)

Tested on: DMPK
Experiment: DMPK knockdown by transfected antisense oligonucleotides in DM1 C15 myotubes at 0.5 nM and 50 nM
Assay type: cell-based
Conditions: 72 hours, qPCR; for Percent DMPK Reduction: relative to vehicle control; for Normalized DMPK Remaining: relative to vehicle control = 1.00
Experimental: Two hundred and thirty-six oligonucleotides for targeting DMPK were generated using in silico analysis. Each individual oligonucleotide was evaluated for their ability to target DMPK in cellulo at two doses—0.5 nM (low dose) and 50 nM (high dose).
Briefly, DM1 C15 immortalized myoblasts were cultured in T-75 flasks until near confluency (˜80% confluent). Myoblasts were then disrupted with trypsin and seeded into 96-well microplates at a density of 50,000 cells/well. Cells were allowed to recover overnight before the growth media was washed out and replaced with a no-serum media to induce differentiation into myotubes. Differentiation proceeded for seven days prior to treatment with DMPK-targeting oligonucleotides.
On day seven following induction of differentiation, DM1 C15 myotubes were transfected with an individual oligonucleotide using 0.3 μL of Lipofectamine MessengerMax per well. All oligonucleotides were tested at both 0.5 nM and 50 nM final concentrations in biological triplicates. After treatment with oligonucleotides, cells were incubated for 72 hours prior to being harvested for total RNA. cDNA was synthesized from the total RNA extracts and qPCR was performed to determine expression levels of DMPK in technical quadruplicate. All qPCR data were analyzed using a traditional […] method and were normalized to a plate-based negative control that comprised cells treated with vehicle control (0.3 μL/well Lipofectamine MessengerMax without any oligonucleotide). Results from these experiments are shown in Table 10. ‘Normalized DMPK Remaining’ for each antisense oligonucleotide in Table 10 refers to the expression level of DMPK in cell treated with said antisense oligonucleotide relative to the negative control that comprised cells treated with vehicle control (wherein the expression level of the negative control has been normalized to equal 1.00)

| Substance | Percent DMPK Reduction (0.5 nM oligonucleotide) [%] | Normalized DMPK Remaining (0.5 nM oligonucleotide) | Percent DMPK Reduction (50 nM oligonucleotide) [%] | Normalized DMPK Remaining (50 nM oligonucleotide) |
| --- | --- | --- | --- | --- |
| 334 (CCAUGACAAUCUCCGCCAGG; chemistry not given here) [compound 334] | 34.53 | 0.65 | 76.46 | 0.24 |
| 335 (UCCCCAAACUUGCUCAGCAG; chemistry not given here) [compound 335] | 5.73 | 0.94 | 44.67 | 0.55 |
| 336 (GAUGUUGUCGGGUUUGAUGU; chemistry not given here) [compound 336] | 10.06 | 0.90 | 42.42 | 0.58 |
| 337 (GUUUGCCCAUCCACGUCAGG; chemistry not given here) [compound 337] | 34.36 | 0.66 | 54.49 | 0.46 |
| 338 (CGGACGGCCCGGCUUGCUGC; chemistry not given here) [compound 338] | 5.42 | 0.95 | 30.41 | 0.70 |
| 339 (CUCCGCCAGGUAGAAGCGCG; chemistry not given here) [compound 339] | 30.22 | 0.70 | 78.14 | 0.22 |
| 340 (GUACAGGUAGUUCUCAUCCU; chemistry not given here) [compound 340] | 31.52 | 0.68 | 65.57 | 0.34 |
| 341 (AGGGCGUCUGCCCAUAGAAC; chemistry not given here) [compound 341] | 13.23 | 0.87 | 58.98 | 0.41 |
| 342 (UGGCCACAGCGGUCCAGCAG; chemistry not given here) [compound 342] | 29.59 | 0.70 | 69.44 | 0.31 |
| 343 (CGUAGUUGACUGGCGAAGUU; chemistry not given here) [compound 343] | 25.26 | 0.75 | 61.52 | 0.38 |
| 344 (UCUGCCGCAGGGACAGCCGC; chemistry not given here) [compound 344] | 22.97 | 0.77 | 82.10 | 0.18 |
| 345 (AAGCGCCUCCGAUAGGCCAG; chemistry not given here) [compound 345] | 8.91 | 0.91 | 43.93 | 0.56 |
| 347 (GCUCAGCAGUGUCAGCAGGU; chemistry not given here) [compound 347] | 29.18 | 0.71 | 73.46 | 0.27 |
| 348 (AUGAUCUUCAUGGCAUACAC; chemistry not given here) [compound 348] | 12.76 | 0.87 | 39.97 | 0.60 |
| 349 (UUUGCCCAUCCACGUCAGGG; chemistry not given here) [compound 349] | 32.79 | 0.67 | 59.36 | 0.41 |
| 350 (ACUUGCUCAGCAGUGUCAGC; chemistry not given here) [compound 350] | 27.84 | 0.72 | 60.71 | 0.39 |
